Experiments:
Bile acid receptor = target: T1, Bile acid receptor (Homo sapiens, UniProt Q96RI1); assay: Agonist activity at glutathione transferase-tagged human FXR ligand binding domain assessed as biotinylated Src1 peptide recruitment incubated for 30 mins by AlphaScreen assay
T1 sequence (Q96RI1 whole entry): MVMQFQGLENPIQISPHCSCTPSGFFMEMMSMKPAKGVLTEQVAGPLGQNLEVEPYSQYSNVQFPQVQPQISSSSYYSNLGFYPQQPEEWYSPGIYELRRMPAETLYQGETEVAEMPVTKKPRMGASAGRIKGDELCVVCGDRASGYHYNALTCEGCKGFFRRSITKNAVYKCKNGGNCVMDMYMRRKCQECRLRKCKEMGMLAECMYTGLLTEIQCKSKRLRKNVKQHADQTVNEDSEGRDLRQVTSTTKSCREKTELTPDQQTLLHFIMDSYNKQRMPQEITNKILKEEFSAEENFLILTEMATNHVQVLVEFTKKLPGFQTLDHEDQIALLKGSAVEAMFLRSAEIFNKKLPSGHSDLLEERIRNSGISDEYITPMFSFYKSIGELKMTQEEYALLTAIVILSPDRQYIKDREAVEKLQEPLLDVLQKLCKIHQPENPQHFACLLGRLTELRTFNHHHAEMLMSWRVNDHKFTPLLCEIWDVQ

[1] = target: T2, G-protein coupled bile acid receptor 1 (Homo sapiens, UniProt Q8TDU6); assay: Agonist activity at TGR5 receptor in human NCI-H716 cells assessed as activation of intracellular cAMP production incubated for 1 hr by HTR-FRET assay; assay type: functional, cell-based
T2 sequence (Q8TDU6 whole entry): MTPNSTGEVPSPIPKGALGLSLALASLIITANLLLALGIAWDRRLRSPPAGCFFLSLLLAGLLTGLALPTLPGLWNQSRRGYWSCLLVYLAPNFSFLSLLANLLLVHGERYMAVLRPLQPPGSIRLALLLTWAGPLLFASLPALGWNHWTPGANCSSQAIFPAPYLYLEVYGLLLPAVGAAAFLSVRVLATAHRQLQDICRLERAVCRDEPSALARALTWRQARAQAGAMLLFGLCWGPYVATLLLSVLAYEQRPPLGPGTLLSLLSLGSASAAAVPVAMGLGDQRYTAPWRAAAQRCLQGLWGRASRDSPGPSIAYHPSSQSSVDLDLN

[2] = target: T3, Bile acid receptor (Homo sapiens) (UniProt Q96RI1); assay: Agonist activity at glutathione transferase-tagged human FXR ligand binding domain assessed as biotinylated Src1 peptide recruitment incubated for 30 mins by AlphaScreen assay relative to CDCA; conditions: filed as agonist
T3 sequence (whole entry): T1 sequence (Q96RI1 whole entry)

EC50 (Bile acid receptor) [nM]	EC50 [1] [µM]	Efficacy [2] [%]	Compound
> 100000	> 100		CC[C@H]1[C@@H](O)[C@@H]2[C@H](CC[C@]3(C)[C@@H]([C@H](C)CCOS(=O)(=O)O)CC[C@@H]23)[C@@]2(C)CC[C@@H](OS(=O)(=O)O)C[C@@H]12
5000	> 100	115	CC[C@H]1[C@@H](O)[C@@H]2[C@H](CC[C@]3(C)[C@@H]([C@H](C)CCOS(=O)(=O)O)CC[C@@H]23)[C@@]2(C)CC[C@@H](O[C@@H]3O[C@H](CC(=O)O)[C@@H](O)[C@H](O)[C@H]3O)C[C@@H]12
80	5	162	CC[C@H]1[C@@H](O)[C@@H]2[C@H](CC[C@]3(C)[C@@H]([C@H](C)CCOS(=O)(=O)O)CC[C@@H]23)[C@@]2(C)CCC(=O)C[C@@H]12

Compound	EC50 (Bile acid receptor) [nM]	EC50 [1] [µM]	Efficacy [2] [%]
CC[C@H]1[C@@H](O)[C@@H]2[C@H](CC[C@]3(C)[C@@H]([C@H](C)CCO)CC[C@@H]23)[C@@]2(C)CC[C@@H](O)C[C@@H]12	1200	1.1	165

Source: ChEMBL document CHEMBL5325392, “Development of 3α,7α-dihydroxy-6α-ethyl-24-nor-5β-cholan-23-sulfate sodium salt (INT-767): Process optimization, synthesis and characterization of metabolites” (Eur J Med Chem, 2022)
